Measured values reported in patent US7842808B2, “Anti-migraine spirocycles” (Bristol-Myers Squibb Company, priority 2002, dated 2010).

molecular target: T1, CGRP receptor (SK-N-MC cell membranes) (Homo sapiens, UniProt O60894+Q16602); assay: CGRP Binding Assay ([125I]-CGRP radioligand binding, SK-N-MC homogenate); details: displacement of [125I]-CGRP, SK-N-MC homogenate; read-out: CGRP binding IC50
T1 construct: endogenous in cells; host or cells: SK-N-MC cells (membrane homogenate)
T1 sequence (Q16602 23-461): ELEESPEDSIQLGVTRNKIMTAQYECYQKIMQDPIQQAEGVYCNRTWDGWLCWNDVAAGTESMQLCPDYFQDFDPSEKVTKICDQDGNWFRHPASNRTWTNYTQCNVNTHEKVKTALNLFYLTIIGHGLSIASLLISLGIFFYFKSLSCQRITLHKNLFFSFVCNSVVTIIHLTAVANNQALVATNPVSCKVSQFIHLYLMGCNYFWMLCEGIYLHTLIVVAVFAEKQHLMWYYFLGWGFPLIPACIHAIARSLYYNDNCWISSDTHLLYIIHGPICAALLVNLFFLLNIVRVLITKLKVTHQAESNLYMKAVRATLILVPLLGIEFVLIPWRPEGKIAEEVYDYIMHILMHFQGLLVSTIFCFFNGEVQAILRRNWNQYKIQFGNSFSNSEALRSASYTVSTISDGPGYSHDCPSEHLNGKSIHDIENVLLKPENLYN
T1 sequence (O60894 27-148): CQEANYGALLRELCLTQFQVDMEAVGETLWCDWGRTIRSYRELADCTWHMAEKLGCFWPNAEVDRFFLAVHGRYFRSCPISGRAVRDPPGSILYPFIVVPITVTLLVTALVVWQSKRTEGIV

| SMILES | IC50 [nM] |
| --- | --- |
| O=C(Nc1ccc(-c2ccccc2)cc1)N[C@@H](CC(=O)N1CCC(N2Cc3ccccc3NC2=O)CC1)C(=O)N1CCC(N2CCCCC2)CC1 [Example 144] | 100 to 1000 |
| O=C(NCc1ccccc1)N[C@@H](CC(=O)N1CCC(N2Cc3ccccc3NC2=O)CC1)C(=O)N1CCC(N2CCCCC2)CC1 [Example 145] | 100 to 1000 |
| O=C(Nc1ccc(Oc2ccccc2)cc1)N[C@@H](CC(=O)N1CCC(N2Cc3ccccc3NC2=O)CC1)C(=O)N1CCC(N2CCCCC2)CC1 [Example 146] | 10 to 100 |
| CC(=O)c1cccc(NC(=O)N[C@@H](CC(=O)N2CCC(N3Cc4ccccc4NC3=O)CC2)C(=O)N2CCC(N3CCCCC3)CC2)c1 [Example 147] | 100 to 1000 |
| O=C(Nc1cccc(Cl)c1Cl)N[C@@H](CC(=O)N1CCC(N2Cc3ccccc3NC2=O)CC1)C(=O)N1CCC(N2CCCCC2)CC1 [Example 148] | 10 to 100 |
| COc1ccccc1NC(=O)N[C@@H](CC(=O)N1CCC(N2Cc3ccccc3NC2=O)CC1)C(=O)N1CCC(N2CCCCC2)CC1 [Example 149] | 10 to 100 |
| COc1cccc(NC(=O)N[C@@H](CC(=O)N2CCC(N3Cc4ccccc4NC3=O)CC2)C(=O)N2CCC(N3CCCCC3)CC2)c1 [Example 150] | 10 to 100 |
| Cc1cccc(NC(=O)N[C@@H](CC(=O)N2CCC(N3Cc4ccccc4NC3=O)CC2)C(=O)N2CCC(N3CCCCC3)CC2)c1C [Example 151] | 100 to 1000 |
| O=C(Nc1ccc(Cl)c(C(F)(F)F)c1)N[C@@H](CC(=O)N1CCC(N2Cc3ccccc3NC2=O)CC1)C(=O)N1CCC(N2CCCCC2)CC1 [Example 152] | 100 to 1000 |
| O=C(Nc1cccc(C(F)(F)F)c1)N[C@@H](CC(=O)N1CCC(N2Cc3ccccc3NC2=O)CC1)C(=O)N1CCC(N2CCCCC2)CC1 [Example 153] | 100 to 1000 |
| O=C(N[C@@H](CC(=O)N1CCC(N2Cc3ccccc3NC2=O)CC1)C(=O)N1CCC(N2CCCCC2)CC1)N[C@@H]1C[C@H]1c1ccccc1 [Example 154] | 100 to 1000 |
| COc1ccc(NC(=O)N[C@@H](CC(=O)N2CCC(N3Cc4ccccc4NC3=O)CC2)C(=O)N2CCC(N3CCCCC3)CC2)c(OC)c1 [Example 155] | 100 to 1000 |
| O=C(Nc1ccc(F)cc1F)N[C@@H](CC(=O)N1CCC(N2Cc3ccccc3NC2=O)CC1)C(=O)N1CCC(N2CCCCC2)CC1 [Example 156] | 100 to 1000 |
| Cc1ccc(C)c(NC(=O)N[C@@H](CC(=O)N2CCC(N3Cc4ccccc4NC3=O)CC2)C(=O)N2CCC(N3CCCCC3)CC2)c1 [Example 157] | 100 to 1000 |
| Cc1ccc(NC(=O)N[C@@H](CC(=O)N2CCC(N3Cc4ccccc4NC3=O)CC2)C(=O)N2CCC(N3CCCCC3)CC2)cc1C [Example 158] | 10 to 100 |
| O=C(Nc1cc(Cl)cc(Cl)c1)N[C@@H](CC(=O)N1CCC(N2Cc3ccccc3NC2=O)CC1)C(=O)N1CCC(N2CCCCC2)CC1 [Example 159] | 10 to 100 |
| O=C(Nc1ccc(C(F)(F)F)cc1)N[C@@H](CC(=O)N1CCC(N2Cc3ccccc3NC2=O)CC1)C(=O)N1CCC(N2CCCCC2)CC1 [Example 160] | 100 to 1000 |
| O=C(Nc1ccc(Cl)cc1Cl)N[C@@H](CC(=O)N1CCC(N2Cc3ccccc3NC2=O)CC1)C(=O)N1CCC(N2CCCCC2)CC1 [Example 161] | 10 to 100 |
| CC(C)c1ccc(NC(=O)N[C@@H](CC(=O)N2CCC(N3Cc4ccccc4NC3=O)CC2)C(=O)N2CCC(N3CCCCC3)CC2)cc1 [Example 162] | 100 to 1000 |

| SMILES | IC50 [nM] |
| --- | --- |
| O=C(Nc1c(F)cccc1F)N[C@@H](CC(=O)N1CCC(N2Cc3ccccc3NC2=O)CC1)C(=O)N1CCC(N2CCCCC2)CC1 [Example 163] | 100 to 1000 |
| O=C(Nc1cc(Cl)nc(Cl)c1)N[C@@H](CC(=O)N1CCC(N2Cc3ccccc3NC2=O)CC1)C(=O)N1CCC(N2CCCCC2)CC1 [Example 164] | 100 to 1000 |
| COc1cc(NC(=O)N[C@@H](CC(=O)N2CCC(N3Cc4ccccc4NC3=O)CC2)C(=O)N2CCC(N3CCCCC3)CC2)cc(OC)c1 [Example 165] | 100 to 1000 |
| COC(=O)[C@H](Cc1ccccc1)NC(=O)N[C@@H](CC(=O)N1CCC(N2Cc3ccccc3NC2=O)CC1)C(=O)N1CCC(N2CCCCC2)CC1 [Example 166] | 100 to 1000 |
| O=C(Nc1cc(C(F)(F)F)ccc1Cl)N[C@@H](CC(=O)N1CCC(N2Cc3ccccc3NC2=O)CC1)C(=O)N1CCC(N2CCCCC2)CC1 [Example 167] | 100 to 1000 |
| O=C(Nc1ccc(F)c(F)c1F)N[C@@H](CC(=O)N1CCC(N2Cc3ccccc3NC2=O)CC1)C(=O)N1CCC(N2CCCCC2)CC1 [Example 168] | 100 to 1000 |
| O=C(NCCc1cccs1)N[C@@H](CC(=O)N1CCC(N2Cc3ccccc3NC2=O)CC1)C(=O)N1CCC(N2CCCCC2)CC1 [Example 169] | 100 to 1000 |
| CCOC(=O)C(C)NC(=O)N[C@@H](CC(=O)N1CCC(N2Cc3ccccc3NC2=O)CC1)C(=O)N1CCC(N2CCCCC2)CC1 (stereo partly drawn) [Example 170] | 100 to 1000 |
| O=C(Nc1ccccc1F)N[C@@H](CC(=O)N1CCC(N2Cc3ccccc3NC2=O)CC1)C(=O)N1CCC(N2CCCCC2)CC1 [Example 171] | 10 to 100 |
| O=C(Nc1ccccc1Cl)N[C@@H](CC(=O)N1CCC(N2Cc3ccccc3NC2=O)CC1)C(=O)N1CCC(N2CCCCC2)CC1 [Example 172] | 10 to 100 |
| O=C(Nc1cc(Cl)ccc1Cl)N[C@@H](CC(=O)N1CCC(N2Cc3ccccc3NC2=O)CC1)C(=O)N1CCC(N2CCCCC2)CC1 [Example 173] | 100 to 1000 |
| COc1ccc(OC)c(NC(=O)N[C@@H](CC(=O)N2CCC(N3Cc4ccccc4NC3=O)CC2)C(=O)N2CCC(N3CCCCC3)CC2)c1 [Example 174] | 100 to 1000 |
| CCOc1ccccc1NC(=O)N[C@@H](CC(=O)N1CCC(N2Cc3ccccc3NC2=O)CC1)C(=O)N1CCC(N2CCCCC2)CC1 [Example 175] | 100 to 1000 |
| O=C(Nc1cccc(Br)c1)N[C@@H](CC(=O)N1CCC(N2Cc3ccccc3NC2=O)CC1)C(=O)N1CCC(N2CCCCC2)CC1 [Example 176] | 10 to 100 |
| O=C(Nc1cccc(F)c1)N[C@@H](CC(=O)N1CCC(N2Cc3ccccc3NC2=O)CC1)C(=O)N1CCC(N2CCCCC2)CC1 [Example 177] | 10 to 100 |
| O=C(Nc1cccc(Cl)c1)N[C@@H](CC(=O)N1CCC(N2Cc3ccccc3NC2=O)CC1)C(=O)N1CCC(N2CCCCC2)CC1 [Example 178] | 10 to 100 |
| O=C(Nc1ccc(Br)cc1)N[C@@H](CC(=O)N1CCC(N2Cc3ccccc3NC2=O)CC1)C(=O)N1CCC(N2CCCCC2)CC1 [Example 179] | 100 to 1000 |
| O=C(Nc1ccc(F)cc1)N[C@@H](CC(=O)N1CCC(N2Cc3ccccc3NC2=O)CC1)C(=O)N1CCC(N2CCCCC2)CC1 [Example 180] | 100 to 1000 |
| COc1ccc(NC(=O)N[C@@H](CC(=O)N2CCC(N3Cc4ccccc4NC3=O)CC2)C(=O)N2CCC(N3CCCCC3)CC2)cc1 [Example 181] | 100 to 1000 |

| SMILES | IC50 [nM] |
| --- | --- |
| CCOC(=O)c1ccc(NC(=O)N[C@@H](CC(=O)N2CCC(N3Cc4ccccc4NC3=O)CC2)C(=O)N2CCC(N3CCCCC3)CC2)cc1 [Example 182] | 100 to 1000 |
| CCCNC(=O)N[C@@H](CC(=O)N1CCC(N2Cc3ccccc3NC2=O)CC1)C(=O)N1CCC(N2CCCCC2)CC1 [Example 183] | 100 to 1000 |
| O=C(Nc1cc(F)ccc1F)N[C@@H](CC(=O)N1CCC(N2Cc3ccccc3NC2=O)CC1)C(=O)N1CCC(N2CCCCC2)CC1 [Example 184] | 10 to 100 |
| Cc1ccc(NC(=O)N[C@@H](CC(=O)N2CCC(N3Cc4ccccc4NC3=O)CC2)C(=O)N2CCC(N3CCCCC3)CC2)c(C)c1 [Example 185] | 100 to 1000 |
| Cc1ccc(NC(=O)N[C@@H](CC(=O)N2CCC(N3Cc4ccccc4NC3=O)CC2)C(=O)N2CCC(N3CCCCC3)CC2)cc1Cl [Example 186] | 100 to 1000 |
| COc1ccc(Cl)cc1NC(=O)N[C@@H](CC(=O)N1CCC(N2Cc3ccccc3NC2=O)CC1)C(=O)N1CCC(N2CCCCC2)CC1 [Example 187] | 100 to 1000 |
| O=C(Nc1ccc(Cl)cc1C(F)(F)F)N[C@@H](CC(=O)N1CCC(N2Cc3ccccc3NC2=O)CC1)C(=O)N1CCC(N2CCCCC2)CC1 [Example 188] | 100 to 1000 |
| CCOc1ccc(NC(=O)N[C@@H](CC(=O)N2CCC(N3Cc4ccccc4NC3=O)CC2)C(=O)N2CCC(N3CCCCC3)CC2)cc1 [Example 189] | 100 to 1000 |
| CCc1ccc(NC(=O)N[C@@H](CC(=O)N2CCC(N3Cc4ccccc4NC3=O)CC2)C(=O)N2CCC(N3CCCCC3)CC2)cc1 [Example 190] | 100 to 1000 |
| Cc1cc(Cl)ccc1NC(=O)N[C@@H](CC(=O)N1CCC(N2Cc3ccccc3NC2=O)CC1)C(=O)N1CCC(N2CCCCC2)CC1 [Example 191] | 100 to 1000 |
| Cc1c(Cl)cccc1NC(=O)N[C@@H](CC(=O)N1CCC(N2Cc3ccccc3NC2=O)CC1)C(=O)N1CCC(N2CCCCC2)CC1 [Example 192] | 100 to 1000 |
| O=C(Nc1ccc(F)c(Cl)c1)N[C@@H](CC(=O)N1CCC(N2Cc3ccccc3NC2=O)CC1)C(=O)N1CCC(N2CCCCC2)CC1 [Example 193] | 10 to 100 |
| Cc1cc(Br)ccc1NC(=O)N[C@@H](CC(=O)N1CCC(N2Cc3ccccc3NC2=O)CC1)C(=O)N1CCC(N2CCCCC2)CC1 [Example 194] | 100 to 1000 |
| Cc1ccc(F)cc1NC(=O)N[C@@H](CC(=O)N1CCC(N2Cc3ccccc3NC2=O)CC1)C(=O)N1CCC(N2CCCCC2)CC1 [Example 195] | 100 to 1000 |
| COC(=O)c1cccc(NC(=O)N[C@@H](CC(=O)N2CCC(N3Cc4ccccc4NC3=O)CC2)C(=O)N2CCC(N3CCCCC3)CC2)c1 [Example 196] | 10 to 100 |
| O=C(Nc1ccccc1-c1ccccc1)N[C@@H](CC(=O)N1CCC(N2Cc3ccccc3NC2=O)CC1)C(=O)N1CCC(N2CCCCC2)CC1 [Example 197] | 100 to 1000 |
| C[C@@H](NC(=O)N[C@@H](CC(=O)N1CCC(N2Cc3ccccc3NC2=O)CC1)C(=O)N1CCC(N2CCCCC2)CC1)c1ccccc1 [Example 198] | 100 to 1000 |
| CC(NC(=O)N[C@@H](CC(=O)N1CCC(N2Cc3ccccc3NC2=O)CC1)C(=O)N1CCC(N2CCCCC2)CC1)c1cccc2ccccc12 (stereo partly drawn) [Example 199] | 10 to 100 |
| O=C(Nc1ccccc1OC(F)(F)F)N[C@@H](CC(=O)N1CCC(N2Cc3ccccc3NC2=O)CC1)C(=O)N1CCC(N2CCCCC2)CC1 [Example 200] | 10 to 100 |
